Assay results taken from ChEMBL document CHEMBL1152081, “1,25-Dihydroxyvitamin D3 Hybrid Analogs with Structural changes at both the A-ring and the C,D-ring side-chain. II” (1995).

How the values were obtained:
Assay type in all cases: functional
Rattus norvegicus [1] = species: Rattus norvegicus; assay: Stimulation of calcium currents by the compound in rat osteosarcoma cells at a concentration of 0.5 nM
Rattus norvegicus [2] = species: Rattus norvegicus; assay: Stimulation of calcium currents by the compound in rat osteosarcoma cells at a concentration of 5.0 nM
Rattus norvegicus [3] = species: Rattus norvegicus; assay: Stimulation of calcium currents by the compound in rat osteosarcoma cells at a concentration of 0.01 nM
Rattus norvegicus [4] = species: Rattus norvegicus; assay: Stimulation of calcium currents by the compound in rat osteosarcoma cells at a concentration of 0.05 nM

Structure (SMILES)	Ca2+ current (Rattus norvegicus [1]) [mV]	Ca2+ current (Rattus norvegicus [2]) [mV]	Ca2+ current (Rattus norvegicus [3]) [mV]	Ca2+ current (Rattus norvegicus [4]) [mV]
C=C1/C(=C\C=C2/CCC[C@]3(C)C([C@@H](C)CSc4cccc(C(C)(C)O)c4)CC[C@@H]23)C[C@H](O)C[C@H]1CO (stereo not given in full)	6.24	8.58	–	–
C=C1/C(=C\C=C2/CCC[C@]3(C)C([C@@H](C)COCCCC(C)(C)O)CC[C@@H]23)C[C@@H](O)C[C@@H]1CO (stereo not given in full)	8.8	8.99	5.42	7.33
C=C1/C(=C\C=C2/CCC[C@]3(C)C([C@@H](C)COCCCC(C)(C)O)CC[C@@H]23)C[C@H](O)C[C@H]1CO (stereo not given in full)	10	8.93	4.94	7.3
C=C1/C(=C\C=C2/CCC[C@]3(C)C([C@@H](C)CSc4cccc(C(C)(C)O)c4)CC[C@@H]23)C[C@@H](O)C[C@@H]1CO (stereo not given in full)	6.6	11.18	–	–
C=C1/C(=C\C=C2/CCC[C@]3(C)[C@@H]([C@H](C)CCCC(C)(C)O)CC[C@@H]23)C[C@@H](O)C[C@@H]1O [CALCITRIOL]	5.73	9.79	–	1.78
